Results from patent publication US20070254907A1, “COMPOSITIONS AND METHODS FOR CONTROLLING INFESTATION” (HATCHTECH PTY LTD, priority 2003, published 2007).
Entries after “also recorded” stand apart in the source; their conditions may differ. Like-named read-outs stand apart in the source and are kept apart here.

Columns and labels:
Plutella xylostella eggs [1] = assay: Reversal of inhibition of Plutella egg hatching by added FeSO4; type: in vivo
Procedure: (§1) Within 24 hours of collection the following experimental design was chosen. Batches of eggs were exposed to 10 mM 6,6′-dimethyl-2,2′-dipyridyl for 2 seconds while additional batches of eggs were exposed to the solvent only (Methanol) for 2 seconds. All batches of eggs were allowed to air dry for 20 minutes at room temperature. The eggs were then given a 2 second exposure to FeSO4 at either 10, 5 or 1 mM, air dried and put in the incubator at 24° C. and allowed to hatch over the next 6 days. In addition, a positive control of 10 mM 6,6′-dimethyl-2,2′-dipyridyl was set up in which eggs were exposed to this compound for 2 seconds, air dried and placed in the incubator.
as §1, with “10 mM 5,5′-dimethyl-2,2′-dipyridyl for 2” for “10 mM 6,6′-dimethyl-2,2′-dipyridyl for 2”, “FeSO4 at 10, 5” for “FeSO4 at either 10, 5”, “put in an incubator at” for “put in the incubator at”, “of 10 mM, 5,5′-dimethyl-2,2′-dipyridyl was set” for “of 10 mM 6,6′-dimethyl-2,2′-dipyridyl was set”

Plutella xylostella eggs [2] = assay: whole plant or invertebrate; type: in vivo
Procedure: The ovicidal efficacy of 2-acetyl-1-tetralone was also tested against Plutella eggs.

B. ovis eggs = assay: Egg hatching in Bovicola ovis; type: in vivo; conditions: 10 mM; for Number hatched in different replicates: 10 eggs per replicate; for % Inhibition: in comparison to the controls; for Number unhatched: per replicate
Procedure: B. ovis eggs were collected from the wool of sheep that were infested with this parasite. The eggs were collected using forceps and with the aid of a dissecting microscope and placed in 24 well tissue culture plates in duplicate lots of 10 eggs per replicate. The eggs were then exposed to either methanol alone (control) or the test compounds for either 10 minutes or 1 minute before being removed from the wells and placed into individual glass vials containing a diet at the base of the tube. The tubes were placed in plastic containers containing a salt solution (to keep humidity constant at 68%) and the containers maintained at a temperature 32° C. The eggs were monitored for hatching over the following 12 days and % hatch inhibition determined in comparison to the controls.

lice eggs = assay: whole plant or invertebrate; type: in vivo; conditions: for H (number of eggs successfully hatched) / Ph (number of eggs partly hatched): per replicate, concentration not given
[3] = test system: Lice (L) and Plutella (P) eggs; conditions: Lice (L) and Plutella (P)
[4] = test system: Helicoverpa armigera eggs; assay: Egg hatching of Helicoverpa armigera
Procedure: A range of concentrations were made up in water and the eggs placed in the solutions for approximately 2-10 seconds. The eggs which had been laid on cloth were then blotted dry and placed in an incubator at 26° C. for 3-4 days until hatch. Hatch rates were then assessed compared to a water only treated control (FIG. 5).
The compound was dissolved in 100% diethoxyglycol and diluted to a final concentration of 1% in water.
Several hundred Helicoverpa armigera eggs (Tatura×Toowoomba strains) were collected, that had been laid on fine mesh cloth over a 24 hour period.
Batches of Helicoverpa eggs were exposed to a specific inhibitor solution for between 2-10 seconds the excess solution drained by blotting with dry tissue paper. The egg masses were then placed in a humid box at 25 degrees until egg hatch. Control eggs were exposed to absolute methanol as described above. At day 6 post laying the eggs were assessed from the different treatments and the percentage of egg hatch determined relative to the control as shown in Table 12.
Batches of Helicoverpa eggs were then exposed to a specific inhibitor solution for between 2-10 seconds the excess solution drained by blotting with dry tissue paper. The egg masses were then placed in a humid box at 25° C. until egg hatch. Control eggs were exposed to absolute methanol as described above. At day 6 post laying the eggs were assessed from the different treatments and the percentage of egg hatch determined relative to the control as shown in Table 13.

[5] = 10 mM chelator followed by 2 second exposure to 1 mM FeSO4
[6] = 10 mM chelator followed by 2 second exposure to 5 mM FeSO4
[7] = 10 mM chelator followed by 2 second exposure to 10 mM FeSO4
[8] = 10 mM chelator followed by 2 second exposure to MEOH
[9] = 10 mM chelator, 2 s, (+ve) control without second exposure
[10] = 10 and 1 mM, listed as 6,6′dimethyl-2,2′dipyridyl
[11] = Table 9, 0.001 mM, dipped 2-10 s, day 6 post laying
[12] = Table 9, 0.01 mM, dipped 2-10 s, day 6 post laying
[13] = Table 9, 0.1 mM, dipped 2-10 s, day 6 post laying
[14] = Table 9, 1 mM, dipped 2-10 s, day 6 post laying
[15] = Table 9, 10 mM, dipped 2-10 s, day 6 post laying
[16] = Table 10, eggs laid on cloth, 0.01 mM
[17] = Table 10, eggs laid on cloth, 0.1 mM
[18] = Table 10, eggs laid on cloth, 1 mM
[19] = Table 10, eggs laid on cloth, 10 mM
[20] = Table 11, eggs laid on parafilm, 0.01 mM
[21] = Table 11, eggs laid on parafilm, 0.1 mM
[22] = Table 11, eggs laid on parafilm, 1 mM
[23] = Table 11, eggs laid on parafilm, 10 mM

Cc1cccc(-c2cccc(C)n2)n1 [6,6′-dimethyl-2,2′-dipyridyl]
Number hatched (Plutella xylostella eggs [1]; [5]): 33 | Number unhatched (Plutella xylostella eggs [1]; [5]): 1 | % Inhibition (Plutella xylostella eggs [1]; 10 mM chelator followed by 2 second exposure to 1 mM FeSO4, relative to FeSO4 controls): 3% | Number hatched (Plutella xylostella eggs [1]; [6]): 25 | Number unhatched (Plutella xylostella eggs [1]; [6]): 0 | % Inhibition (Plutella xylostella eggs [1]; 10 mM chelator followed by 2 second exposure to 5 mM FeSO4, relative to FeSO4 controls): 0% | Number hatched (Plutella xylostella eggs [1]; [7]): 12 | Number unhatched (Plutella xylostella eggs [1]; [7]): 19 | % Inhibition (Plutella xylostella eggs [1]; 10 mM chelator followed by 2 second exposure to 10 mM FeSO4, relative to FeSO4 controls): 38% | % Inhibition (Plutella xylostella eggs [1]; [8]): 90% | Number hatched (Plutella xylostella eggs [1]; [8]): 3 | Number unhatched (Plutella xylostella eggs [1]; [8]): 28 | % Inhibition (Plutella xylostella eggs [1]; [9]): 100% | Number hatched (Plutella xylostella eggs [1]; [9]): 0 | Number unhatched (Plutella xylostella eggs [1]; [9]): 44 | effect of added Fe in FeSO4 on the chelator's inhibition of egg hatching (Plutella xylostella eggs [1]; 10 mM chelator, then FeSO4 10, 5 or 1 mM): able to reverse the effects | inhibition of egg hatching after MeOH alone post exposure (Plutella xylostella eggs [1]; 10 mM chelator, then MeOH): significant degree of inhibition of egg hatching | effect on egg hatching of Plutella xylostella (words) (Plutella xylostella eggs [2]; 0.1 and 0.01 mM): no observable effects on egg hatching | effect on egg hatching of Plutella xylostella (words) (Plutella xylostella eggs [2]; 10 and 1 mM, listed as 6,6′-dimethyl-2,2′dipyridyl): effective at inhibiting egg hatching | effect on egg hatching of Plutella xylostella (words) (Plutella xylostella eggs [2]; [10]): strong ovicidal effects | Ovicidal activity % (Plutella xylostella eggs [2]; Plutella (P), 1 mM): 100.00% | Activity class 0 = inactive 1 = low 2 = med 3 = high (Plutella xylostella eggs [2]; Plutella (P), listed as of 1 mM): 2 (a pLD50 value between 3 and 4 is considered moderately active (Class 2)) | Number hatched (Plutella xylostella eggs [2]; [11]): 11 | Number unhatched (Plutella xylostella eggs [2]; [11]): 6 | % Inhibition (Plutella xylostella eggs [2]; Table 9, 0.001 mM, relative to control (100% MeOH)): 0% | Number hatched (Plutella xylostella eggs [2]; [12]): 13 | Number unhatched (Plutella xylostella eggs [2]; [12]): 7 | % Inhibition (Plutella xylostella eggs [2]; Table 9, 0.01 mM, relative to control (100% MeOH)): 0% | Number hatched (Plutella xylostella eggs [2]; [13]): 23 | Number unhatched (Plutella xylostella eggs [2]; [13]): 29 | % Inhibition (Plutella xylostella eggs [2]; Table 9, 0.1 mM, relative to control (100% MeOH)): 0% | Number hatched (Plutella xylostella eggs [2]; [14]): 0 | Number unhatched (Plutella xylostella eggs [2]; [14]): 26 | % Inhibition (Plutella xylostella eggs [2]; Table 9, 1 mM, relative to control (100% MeOH)): 100% | Number hatched (Plutella xylostella eggs [2]; [15]): 0 | Number unhatched (Plutella xylostella eggs [2]; [15]): 79 | % Inhibition (Plutella xylostella eggs [2]; Table 9, 10 mM, relative to control (100% MeOH)): 100% | Number hatched (Plutella xylostella eggs [2]; [16]): 23 | Number unhatched (Plutella xylostella eggs [2]; [16]): 4 | % Inhibition (Plutella xylostella eggs [2]; Table 10, eggs laid on cloth, 0.01 mM, relative to controls): 12% | Number hatched (Plutella xylostella eggs [2]; [17]): 49 | Number unhatched (Plutella xylostella eggs [2]; [17]): 0 | % Inhibition (Plutella xylostella eggs [2]; Table 10, eggs laid on cloth, 0.1 mM, relative to controls): 0% | Number hatched (Plutella xylostella eggs [2]; [18]): 0 | Number unhatched (Plutella xylostella eggs [2]; [18]): 23 | % Inhibition (Plutella xylostella eggs [2]; Table 10, eggs laid on cloth, 1 mM, relative to controls): 100% | Number hatched (Plutella xylostella eggs [2]; [19]): 0 | Number unhatched (Plutella xylostella eggs [2]; [19]): 53 | % Inhibition (Plutella xylostella eggs [2]; Table 10, eggs laid on cloth, 10 mM, relative to controls): 100% | Number hatched (Plutella xylostella eggs [2]; [20]): 92 | Number unhatched (Plutella xylostella eggs [2]; [20]): 1 | % Inhibition (Plutella xylostella eggs [2]; Table 11, eggs laid on parafilm, 0.01 mM, relative to controls): 0% | Number hatched (Plutella xylostella eggs [2]; [21]): 65 | Number unhatched (Plutella xylostella eggs [2]; [21]): 11 | % Inhibition (Plutella xylostella eggs [2]; Table 11, eggs laid on parafilm, 0.1 mM, relative to controls): 7% | Number hatched (Plutella xylostella eggs [2]; [22]): 0 | Number unhatched (Plutella xylostella eggs [2]; [22]): 63 | % Inhibition (Plutella xylostella eggs [2]; Table 11, eggs laid on parafilm, 1 mM, relative to controls): 100% | Number hatched (Plutella xylostella eggs [2]; [23]): 0 | Number unhatched (Plutella xylostella eggs [2]; [23]): 106 | % Inhibition (Plutella xylostella eggs [2]; Table 11, eggs laid on parafilm, 10 mM, relative to controls): 100% | egg hatching in the louse (B. ovis eggs; 10 or 1 minute exposure): completely inhibited | Number hatched in different replicates (B. ovis eggs; 1 minute exposure): Rep 1. 0; also recorded: Rep 2. 0 | % Inhibition (B. ovis eggs; 1 minute exposure): 100% | Number unhatched (B. ovis eggs; 1 minute exposure): 10 | Number hatched in different replicates (B. ovis eggs; 10 minute exposure): Rep 1. 0; also recorded: Rep 2. 0 | % Inhibition (B. ovis eggs; 10 minute exposure): 100% | Number unhatched (B. ovis eggs; 10 minute exposure): 10 | lice egg hatching (lice eggs; all time points examined (24-120 hr post egg laying)): completely inhibited | H (number of eggs successfully hatched) (lice eggs; treated 24 hr post egg laying): 0 | Ph (number of eggs partly hatched) (lice eggs; treated 24 hr post egg laying): 0 | H (number of eggs successfully hatched) (lice eggs; treated 48 hr post egg laying): 0 | Ph (number of eggs partly hatched) (lice eggs; treated 48 hr post egg laying): 0 | H (number of eggs successfully hatched) (lice eggs; treated 72 hr post egg laying): 0 | Ph (number of eggs partly hatched) (lice eggs; treated 72 hr post egg laying): 0 | H (number of eggs successfully hatched) (lice eggs; treated 96 hr post egg laying): 0 | Ph (number of eggs partly hatched) (lice eggs; treated 96 hr post egg laying): 0 | H (number of eggs successfully hatched) (lice eggs; treated 120 hr post egg laying): 0 | Ph (number of eggs partly hatched) (lice eggs; treated 120 hr post egg laying): 0 | Ovicidal activity % ([3]; 0.1 mM): 0.00% | Ovicidal activity % ([3]; 10 mM): 100.00% | Activity class 0 = inactive 1 = low 2 = med 3 = high ([3]; listed as of 0.1 mM): 2 (a pLD50 value between 3 and 4 is considered moderately active (Class 2)) | Activity class 0 = inactive 1 = low 2 = med 3 = high ([3]; listed as of 10 mM): 2 (a pLD50 value between 3 and 4 is considered moderately active (Class 2)) | effect on egg hatching of Helicoverpa armigera (words) ([4]; 0.1 mM): no inhibition of egg hatching was observed | effect on egg hatching of Helicoverpa armigera (words) ([4]; 10 and 1 mM): significantly inhibit the egg hatching | effect on egg hatching of Helicoverpa armigera (words) [4, 10]: significantly inhibit egg hatching | % Inhibition ([4]; Table 12, 0.001 mM, relative to control (100% MeOH)): 0% | % Inhibition ([4]; Table 12, 0.01 mM, relative to control (100% MeOH)): 0% | % Inhibition ([4]; Table 12, 0.1 mM, relative to control (100% MeOH)): 0% | Number hatched ([4]; Table 12, 1 mM): 4 | Number unhatched ([4]; Table 12, 1 mM): 140 | % Inhibition ([4]; Table 12, 1 mM, relative to control (100% MeOH)): 97% | Number hatched ([4]; Table 12, 10 mM): 7 | Number unhatched ([4]; Table 12, 10 mM): 98 | % Inhibition ([4]; Table 12, 10 mM, relative to control (100% MeOH)): 94% | Number hatched ([4]; Table 13, 0.1 mM): 70 | Number unhatched ([4]; Table 13, 0.1 mM): 0 | % Inhibition ([4]; Table 13, 0.1 mM, relative to the control (100% MeOH)): 0% | Number hatched ([4]; Table 13, 1 mM): 2 | Number unhatched ([4]; Table 13, 1 mM): 61 | % Inhibition ([4]; Table 13, 1 mM, relative to the control (100% MeOH)): 97% | Number hatched ([4]; Table 13, 10 mM): 3 | Number unhatched ([4]; Table 13, 10 mM): 48 | % Inhibition ([4]; Table 13, 10 mM, relative to the control (100% MeOH)): 94% | effect on egg hatching of Helicoverpa armigera (words) ([4]; concentrations below 1 mM): No inhibition was recorded
